In general, IC50 refers to the concentration needed to halve the response being measured.

In assay [1] the target is NLRP3 inflammasome (Homo sapiens, UniProt Q96P20). In words: IL-1β assay in IFN-γ-differentiated, LPS-primed, ATP-activated THP-1 cells (ELISA). Type of assay: cell-based. The note with it: 50 ng/mL LPS priming, 2.5 mM ATP activation, 2 hours. The procedure, abridged: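 THP-1 cells differentiated with 25 ng/mL IFN-γ for 24 h, then primed with 50 ng/mL LPS for 24 h in serum-free medium. After 30 min compound preincubation (1:3.16 dilution series), inflammasome activated with 2.5 mM ATP for 2 h at 37 °C. Supernatant IL-1β measured by ELISA; IC50 from logistic fit of % inhibition.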
NLRP3 inflammasome, sequence (Q96P20 whole entry): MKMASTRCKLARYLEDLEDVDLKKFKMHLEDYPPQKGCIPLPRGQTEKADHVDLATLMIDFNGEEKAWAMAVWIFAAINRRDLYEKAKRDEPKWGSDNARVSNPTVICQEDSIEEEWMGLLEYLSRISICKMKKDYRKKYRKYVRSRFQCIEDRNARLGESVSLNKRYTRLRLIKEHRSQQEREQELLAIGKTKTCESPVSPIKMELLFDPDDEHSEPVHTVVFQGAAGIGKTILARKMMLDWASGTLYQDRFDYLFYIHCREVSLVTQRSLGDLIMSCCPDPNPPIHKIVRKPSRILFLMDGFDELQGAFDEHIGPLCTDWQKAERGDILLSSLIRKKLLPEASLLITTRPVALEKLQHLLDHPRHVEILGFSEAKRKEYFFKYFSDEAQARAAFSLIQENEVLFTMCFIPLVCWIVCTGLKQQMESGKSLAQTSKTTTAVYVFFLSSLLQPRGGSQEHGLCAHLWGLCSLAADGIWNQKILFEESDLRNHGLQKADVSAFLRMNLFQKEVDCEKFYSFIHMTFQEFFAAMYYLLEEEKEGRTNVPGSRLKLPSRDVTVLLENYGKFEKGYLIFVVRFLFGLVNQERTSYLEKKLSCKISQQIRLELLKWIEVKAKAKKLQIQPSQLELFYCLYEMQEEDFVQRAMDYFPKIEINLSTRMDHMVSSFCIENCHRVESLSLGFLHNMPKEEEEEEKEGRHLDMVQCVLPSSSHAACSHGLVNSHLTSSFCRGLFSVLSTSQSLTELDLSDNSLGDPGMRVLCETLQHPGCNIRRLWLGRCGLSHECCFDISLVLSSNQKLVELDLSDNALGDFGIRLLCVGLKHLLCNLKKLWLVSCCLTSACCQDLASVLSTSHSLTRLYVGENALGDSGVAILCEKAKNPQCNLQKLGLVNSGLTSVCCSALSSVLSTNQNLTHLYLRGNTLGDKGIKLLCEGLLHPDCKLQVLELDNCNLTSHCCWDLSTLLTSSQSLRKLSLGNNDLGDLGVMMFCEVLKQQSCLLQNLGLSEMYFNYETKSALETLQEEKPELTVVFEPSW
(In general: In an ELISA, binding on a coated surface is turned into a signal by an enzyme label.)

Assay [2] concerns NF-κB pathway. In words: TNF-α assay in IFN-γ-differentiated, LPS-stimulated THP-1 cells (ELISA). Type of assay: cell-based. The note with it: Homo sapiens, 50 ng/mL LPS, 3 hours. The procedure, abridged:
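THP-1 cells differentiated with 25 ng/mL IFN-γ for 24 h, then preincubated 30 min at 37 °C with compound (1:3.16 serial dilutions) in serum-free medium. Stimulated with 50 ng/mL LPS for 3 h; supernatant assayed by human TNF-α ELISA. IC50 from four-parameter logistic fit of % inhibition.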

`CN1CCCC(Nc2nnc(-c3ccc(Cl)cc3F)c3ccccc23)C1` (stereo not shown) [Example 43, 4-(4-chloro-2-fluorophenyl)-N-(1-methylpiperidin-3-yl)phthalazin-1-amine]: the IC50 was 41 nM in assay [1] and above 30000 nM in assay [2].

As to `CN1CCC[C@@H](Nc2nnc(-c3ccc(Cl)cc3)c3cnccc23)C1` [Example 67, (R)-4-(4-chlorophenyl)-N-(1-methylpiperidin-3-yl)pyrido[3,4-d]pyridazin-1-amine], the IC50 in assay [1] was 552 nM; in assay [2] it was above 30000 nM.

As for `Cc1ccc(-c2nnc(N[C@@H]3C[C@@H](F)CN(C)C3)c3c(C)nccc23)c(O)c1` [Example 186, 2-(4-(((3R,5R)-5-fluoro-1-methylpiperidin-3-yl)amino)-5-methylpyrido[3,4-d]pyridazin-1-yl)-5-methylphenol], the IC50 in assay [1] is 5 nM; in assay [2] it was above 30000 nM.

As to `COc1ccc(-c2nnc(N[C@H]3C[C@@](C)(O)C3)c3ccccc23)cc1` [Example 124, cis-3-((4-(4-methoxyphenyl)phthalazin-1-yl)amino)-1-methylcyclobutan-1-ol], the IC50 was 1290 nM in assay [1] and above 30000 nM in assay [2].

Consider `CN1CCC[C@@H](Nc2nnc(-c3ccc(Cl)cc3)c3ccncc23)C1` [Example 64, (R)-1-(4-chlorophenyl)-N-(1-methylpiperidin-3-yl)pyrido[3,4-d]pyridazin-4-amine], for which the figures for the IC50 in assay [1] and in assay [2] were 58 nM and above 30000 nM, respectively.

Turning to `Clc1ccc(-c2nnc(NC3CCCN(C4CC4)C3)c3ccccc23)cc1` (stereo not shown) [Example 144, 4-(4-chlorophenyl)-N-(1-cyclopropylpiperidin-3-yl)phthalazin-1-amine], the IC50 in assay [1] is 43 nM; in assay [2] it was above 30000 nM.

For `CN1C[C@H](F)C[C@@H](Nc2nnc(-c3ccc(Cl)cc3O)c3c2CCOC3)C1` [Example 200, 5-chloro-2-(1-(((3R,5R)-5-fluoro-1-methylpiperidin-3-yl)amino)-7,8-dihydro-5H-pyrano[3,4-d]pyridazin-4-yl)phenol], the IC50 in assay [1] is 3 nM; in assay [2], above 30000 nM.

On to `COc1ccc(-c2nnc(N[C@@H]3C[C@@H](F)CN(C)C3)c3c2COCC3)c(C(F)F)c1` [Example 208, 4-(2-(difluoromethyl)-4-methoxyphenyl)-N-((3R,5R)-5-fluoro-1-methylpiperidin-3-yl)-7,8-dihydro-5H-pyrano[3,4-d]pyridazin-1-amine], for which the figures for the IC50 in assay [1] and in assay [2] were 853 nM and above 30000 nM, respectively.

Values taken from patent US20250340563A1, “FUSED PYRIDAZINE DERIVATIVES AS NLRP3 INHIBITORS” (Takeda Pharmaceutical Company Limited, priority 2022, published 2025).
